Several values for one entry are separate records, joined by “and”; a condition that tells them apart may be missing. Equal entries are not always repeated. Entries after “also recorded” stand apart in the source; their conditions may differ.
Assays:
[1] = tested on: thymidylate synthase (TS); assay: Intracellular dTMP, TS and dUMP levels in PBMCs of treated subjects (UPLC-MS, Western blot); format: in vivo, patients; conditions: for intracellular TS level and/or activity / intracellular dTMP level: cells (PBMCs) of treated subjects
Method: Remove sample from the centrifuge carefully.
(§1) Vortex-mix for 30 seconds. Leave sample on ice for 15 minutes.
UPLC-MS for was used to detect dTMP Western blot was used to detect TS.

[2] = comparison value; cited from earlier work
[3] = patients treated with 5FU; cited from earlier work
[4] = molecular target: T1, dihydropyrimidine dehydrogenase (DPD) (Homo sapiens, UniProt Q12882); conditions: catabolism in the liver; cited from earlier work
T1 construct: This is balanced by catabolism by dihydropyrimidine dehydrogenase (DPD) in the liver; host or cells: liver (of patients)
T1 sequence (Q12882 4-1025): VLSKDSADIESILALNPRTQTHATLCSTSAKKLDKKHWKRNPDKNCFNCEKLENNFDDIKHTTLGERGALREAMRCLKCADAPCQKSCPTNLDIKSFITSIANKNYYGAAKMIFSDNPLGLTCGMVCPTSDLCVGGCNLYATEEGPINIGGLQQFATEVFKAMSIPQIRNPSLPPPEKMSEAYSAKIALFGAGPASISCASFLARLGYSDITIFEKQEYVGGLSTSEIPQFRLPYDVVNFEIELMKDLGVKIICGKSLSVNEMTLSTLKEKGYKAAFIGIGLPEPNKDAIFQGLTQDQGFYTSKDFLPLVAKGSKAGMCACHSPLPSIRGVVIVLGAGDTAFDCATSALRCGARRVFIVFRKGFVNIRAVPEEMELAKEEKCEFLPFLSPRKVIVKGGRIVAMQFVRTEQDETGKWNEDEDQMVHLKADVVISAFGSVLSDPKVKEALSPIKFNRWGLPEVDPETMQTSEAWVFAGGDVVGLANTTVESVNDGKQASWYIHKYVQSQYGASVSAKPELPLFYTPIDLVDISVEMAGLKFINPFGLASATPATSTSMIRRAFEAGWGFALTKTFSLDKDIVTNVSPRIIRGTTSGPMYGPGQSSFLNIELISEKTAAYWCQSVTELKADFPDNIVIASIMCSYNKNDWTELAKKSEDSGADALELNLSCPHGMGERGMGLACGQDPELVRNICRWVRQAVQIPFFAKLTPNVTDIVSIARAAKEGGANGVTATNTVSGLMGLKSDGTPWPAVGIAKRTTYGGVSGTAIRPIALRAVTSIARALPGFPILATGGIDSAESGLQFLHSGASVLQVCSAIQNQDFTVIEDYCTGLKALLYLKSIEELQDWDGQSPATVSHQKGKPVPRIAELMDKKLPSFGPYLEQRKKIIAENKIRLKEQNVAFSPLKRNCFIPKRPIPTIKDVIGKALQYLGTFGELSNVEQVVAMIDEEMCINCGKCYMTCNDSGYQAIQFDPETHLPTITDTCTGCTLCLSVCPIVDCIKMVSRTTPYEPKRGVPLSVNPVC

[5] = NuTide:301 Phase 1 study: pharmacokinetic analysis of NUC-3373 in blood plasma; format: in vivo; conditions: human, iv, patients with advanced solid tumors, 125-750 mg/m^2, 1:1 mixture of S and R epimers
Method: (§2) All patients have metastatic spread.
NUC-3373 is presented as a single dose intravenous injection in a clear vial containing 250 mg/ml NUC-3373 in a solution of dimethylacetamide (DMA) and normal saline in the ratio of 80:20. The product is a clear yellow solution, free from visible particles.
In the study all patients were treated with a 1:1 mixture of NUC-3373 S and R epimers.
Centrifuge the 4 ml blood sample at 1,200 g at 18° C. for 10 minutes. Using a sterile plastic pipette (pastette), remove the resulting plasma and transfer ˜1.0 ml plasma into each of 2 cryovials (2 ml).

[6] = NuTide:301 study: detection of toxic byproducts FBAL and dhFU by UPLC-MS/MS after NUC-3373 administration; format: in vivo, patients; conditions: at the doses studied
Method: as §2, §1
UPLC-MS/MS was used to detect dhFU and FBAL

[7] = NuTide:301 clinical trial: occurrence of hand-foot syndrome; format: in vivo; conditions: 36 patients treated with NUC-3373, so far
Description: as §2

[8] = formal dog toxicology studies; cited from earlier work
[9] = in vivo
Method: The patients received NUC-3373, administered as a 30-minute to 2 hour intravenous injection on days 1, 8, 15 and 22 of a 28-day cycle regimen.
The cohorts treated to date received 125 mg/m^2, 250 mg/m^2, 500 mg/m^2 or 750 mg/m^2 NUC-3373 per administration.
Pharmacokinetic analysis of blood samples of the patients was then carried out.
Blood samples were collected on days 1 and 15 of a treatment cycle:
The blood samples should arrive in the lab within 2 hours of collection. Collect 8 ml of blood into CPT tubes (blood tubes should be centrifuged within 2 hours of blood collection). Remix the blood sample immediately prior to centrifugation by gently inverting the tube 8 to 10 times. Set centrifuge so that the start and finish is set to a slow acceleration (without break). Centrifuge at 18° C. for 20 minutes at 1,500 g. Remove sample from the centrifuge carefully. This will result in five layers: plasma (first); whitish cell (PBMC) layer [second]; polyester gel [third]; density solution [fourth] and, remaining granulocytes and RBCs [fifth]. Aspirate approximately half of the plasma without disturbing the cell layer. Collect the PBMC layer with a Pasteur Pipette and transfer to a 50 ml tube and add cold PBS (4° C.) to a final volume of 40 ml. Divide between two 50 ml tubes (20 ml per tube) and centrifuge for 5 minutes at 4° C. at 1,500 g. […]

| half-life of intracellular FUDR monophosphate ([9]; human) | detectability of intracellular FUDR monophosphate at late time point [9] | SMILES | intracellular TS level and/or activity [1] | intracellular dTMP level [1] | plasma half-life of 5FU [2] | patients developing hand-foot syndrome [3] | fraction of 5-fluorouracil broken down by DPD [4] | half-life [5] | dihydrofluorouracil (dhFU) detected following NUC-3373 administration [6] | α-fluoro-β-alanine (FBAL) detected following NUC-3373 administration [6] | intracellular dUMP level ([1]; cells of treated subjects) | patients who developed hand-foot syndrome [7] | tolerability compared with 5FU [8] |
| --- | --- | --- | --- | --- | --- | --- | --- | --- | --- | --- | --- | --- | --- |
| – | – | O=c1[nH]cc(F)c(=O)[nH]1 [5FU, 5-fluorouracil] | not observed | not observed | 8 to 14 min | 30-60% and 40-60% | More than 85% | – | – | – | – | – | – |
| – | – | C[C@H](NP(=O)(OC[C@H]1O[C@@H](n2cc(F)c(=O)[nH]c2=O)CC1O)Oc1cccc2ccccc12)C(=O)OCc1ccccc1 (stereo partly drawn) [NUC-3373, 5-fluoro-2′-deoxyuridine-5′-O-[1-naphthyl (benzoxy-L-alaninyl)] phosphate] | deplete | deplete | – | – | – | 9.7 h | undetectable | undetectable; also recorded: very low levels | increased accumulation | none | significantly better tolerated than 5FU |
| 14.9 h | still detectable | O=c1[nH]c(=O)n([C@H]2C[C@H](O)[C@@H](COP(=O)(O)O)O2)cc1F [FUDR monophosphate] | – | – | – | – | – | – | – | – | – | – | – |

From US20240293439A1, “TREATMENT REGIMENS” (NuCana plc, priority 2017, published 2024)
